Data taken from patent US5026724A, “Compounds with bronchodilator activity” (Akzo N.V., priority 1988, dated 1991).
Structures can show the parent of a compound that is named as a salt. One block for each compound: values may come before it.

Test system: Isolated, single ring preparations of guinea-pig trachea
Assay: relaxant effect after tone contracture induced by histamine in isolated guinea-pig trachea rings
Type: cell-based
Details: Cavia porcellus, contracture by histamine (40 μM), flurbiprofen (1 μM) present, 37° C., cumulative concentration-effect curves
Method: Compounds of formula I show strong bronchodilator activity, which for instance can be measured by the relaxant effect of the compounds after tone contracture by histamine, which is determined as follows. Isolated, single ring preparations of guinea-pig trachea were suspended in tissue baths containing KrebsHenseleit solution, at 37° C., bubbled with a gaseous mixture of 5% CO2 and 95% 02 Tissues were allowed to equilibrate for 60 min. after which flurbiprofen (1 μM), a cyclo-oxygenase inhibitor, was added to the tissue bath and a further 60 min. equilibration allowed to elapse. The flurbiprofen remained in contact with the tissue for the duration of the experiment in order to eliminate the complications that arise in guinea-pig airway preparations due to the spontaneous and agonist-induced generation of cyclo-oxygenase products (for example PGE2 and PGF2α) No other drugs (e.g. atropine or β-adrenoceptor antagonists) were present during the experimental protocol. […] Thus, tone (contracture) was induced by addition of an equi-effective (EC50) concentration of histamine (40 μM). The relaxant effects of each compound were tested by constructing cumulative concentration-effect curves. In each experiment, three preparations were contracted with histamine. After completion of the relaxant concentration-effect curves the compound under test was thoroughly washed out from the preparations which were then left to recover to control levels of resting tension (approx. 60 min.). Results of this test for the compounds of formula I are denoted in the table.

Structure (SMILES): COc1cc2cc(C(=N)NO)sc2cc1OC [H OCH3 H NH2 S none, N-hydroxy-5,6-dimethoxy-benzo[b]thiophene-2-carboximidamide]
EC50: 8 µM

Structure (SMILES): COc1cc2sc(C(=N)NO)cc2c(Br)c1OC [Br OCH3 H NH2 S CH3 SO3 H, 4-bromo-N-hydroxy-5,6-dimethoxy-benzo[b]thiophene-2-carboximidamide methanesulphonate]
EC50: 1 µM

Structure (SMILES): COc1cc2sc(C(=N)NO)cc2c(Cl)c1O [Cl OH H NH2 S HCl, 4-chloro-5,N-dihydroxy-6-methoxy-benzo[b]thiophene-2-carboximidamide hydrochloride]
EC50: 10 µM

Structure (SMILES): COc1cc2c(cc1OC)CCC(C(=N)NO)=C2 [H OCH3 H NH2 (CH2)2 HCl, 1,2-dihydro-N-hydroxy-6,7-dimethoxy-naphthalene-3-carboximidamide]
EC50: 3 µM

Structure (SMILES): COc1cc2sc(C(=N)NO)cc2cc1OC(F)F [H OCHF2 H NH2 S HCl, 5-difluoromethyloxy-N-hydroxy-6-methoxy-benzo[b]thiophene-2-carboximidamide hydrochloride]
EC50: 5 µM

Structure (SMILES): COc1cc(OC)c2cc(C(=N)NO)oc2c1 [OCH3 H H NH2 O HCl, N-hydroxy-4,6-dimethoxy-benzo[b]furan-2-carboximidamide]
EC50: 5 µM

The remaining compounds from weak to strong by EC50, led by results:

EC50: 8 µM
Structure (SMILES): COc1c(OC)c(Cl)c2sc(C(=N)NO)cc2c1Cl [Cl OCH3 Cl NH2 S HCl, 4,7-dichloro-N-hydroxy-5,6-dimethoxy-benzo[b]thiophene-2-carboximidamide hydrochloride]

EC50: 5 µM
Structure (SMILES): COc1cc2sc(C=NO)cc2c(Cl)c1OC (mixture of isomers) [Cl OCH3 H H(Z/E mixture) S none, 4-chloro-5,6-dimethoxy-benzo[b]thiophene-2-carboxaldehyde oxime]

EC50: 5 µM
Structure (SMILES): COc1cc2cc(/C=N\O)sc2cc1OC [H OCH3 H H(Z-isomer) S none, (Z)-5,6-dimethoxy-benzo[b]thiophene-2-carboxaldehyde oxime]

EC50: 2.5 µM
Structure (SMILES): COc1cc2sc(C(=N)NO)cc2c(F)c1OC [F OCH3 H NH2 S CH3 SO3 H, 4-fluoro-N-hydroxy-5,6-dimethoxy-benzo[b]thiophene-2-carboximidamide]

EC50: 2 µM
Structure (SMILES): COc1cc2cc(/C=N/O)sc2cc1OC [H OCH3 H H(E-isomer) S none, (E)-5,6-dimethoxy-benzo[b]thiophene-2-carboxaldehyde oxime]

EC50: 0.1 µM
Structure (SMILES): COc1cc2cc(/C(C)=N/O)sc2cc1OC [H OCH3 H CH3 (E-isomer) S none, (E)-1-(5,6-dimethoxy-benzo[b]thien-2-yl)-ethanone oxime]
